Source: US20110313046A1, “COMBINATION THERAPY WITH LISDEXAMPHETAMINE AND EXTENDED RELEASE GUANFACINE” (priority 2010, published 2011)
Where two headings read alike, the source gives them in different places.

Tests used:
[1] = d-Amphetamine plasma pharmacokinetics, crossover drug-drug interaction study; assay type: in vivo, healthy adults
Experimental: (§1) An open-label, randomized, single-center, 3-period, crossover, drug-drug interaction study in 42 healthy adults (18-45 years old) was performed. Subjects received three single, oral dose treatments: 4 mg extended release guanfacine, 50 mg lisdexamphetmaine, and 4 mg extended release guanfacine in combination with 50 mg lisdexamphetmaine. Subjects underwent the three treatment periods with a 7-day washout between each treatment.

CYP450 system = conditions: cited from earlier work
[2] = Lisdexamphetamine plasma pharmacokinetics, crossover drug-drug interaction study; assay type: in vivo, healthy adults; design: lisdexamphetamine plasma concentration, Mean / lisdexamphetamine plasma concentration, Median / lisdexamphetamine plasma concentration, Min / lisdexamphetamine plasma concentration, Max: unit not given here; conditions: for AUC / AUC(0-t) / Cmax / Tmax / Vd/F / CL/F: po, 50 mg
Experimental: as §1

[3] = Adverse events and safety, crossover drug-drug interaction study; assay type: in vivo, healthy adults; conditions: TEAEs by treatment; single oral dose (SPD503 4 mg, VYVANSE 50 mg)
Experimental: A “treatment-emergent adverse event” (TEAE) is an AE that occurred or worsened during the on-treatment period.
A “non-treatment-emergent adverse event” is an AE that occurred during the pre-treatment period or the post-treatment period.
as §1

CYP3A4 = CYP3A4 (Homo sapiens, UniProt P08684); conditions: cited from earlier work
[4] = Guanfacine plasma pharmacokinetics, crossover drug-drug interaction study; design: species or system healthy adults; conditions: human, in vivo
Experimental: as §1

[5] = young intact rhesus monkeys; cited from earlier work
[6] = single oral dose 50 mg, weight normalized
[7] = time 0.5, single oral dose 50 mg
[8] = time 1.5, single oral dose 50 mg
[9] = time 12, single oral dose 50 mg
[10] = time 24, single oral dose 50 mg
[11] = time 30, single oral dose 50 mg
[12] = time 48, single oral dose 50 mg
[13] = time 72, single oral dose 50 mg

Chain of CYP3A4 (P08684 whole entry, species assumed): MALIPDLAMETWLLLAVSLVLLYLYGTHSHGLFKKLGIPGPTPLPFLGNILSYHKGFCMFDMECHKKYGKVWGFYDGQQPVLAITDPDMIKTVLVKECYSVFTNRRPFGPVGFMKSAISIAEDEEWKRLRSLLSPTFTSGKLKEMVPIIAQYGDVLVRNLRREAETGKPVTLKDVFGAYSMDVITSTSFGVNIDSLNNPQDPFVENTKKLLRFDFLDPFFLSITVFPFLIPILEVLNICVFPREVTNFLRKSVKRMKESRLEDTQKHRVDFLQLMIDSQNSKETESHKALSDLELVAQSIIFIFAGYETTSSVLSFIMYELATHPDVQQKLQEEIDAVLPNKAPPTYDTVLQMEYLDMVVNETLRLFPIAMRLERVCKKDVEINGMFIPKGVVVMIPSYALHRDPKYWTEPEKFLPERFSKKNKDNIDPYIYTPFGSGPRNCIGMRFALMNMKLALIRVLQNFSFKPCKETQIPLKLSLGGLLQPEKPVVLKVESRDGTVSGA

C[C@@H](Cc1ccccc1)NC(=O)[C@@H](N)CCCCN [VYVANSE Alone, lisdexamphetamine dimesylate]
mean d-amphetamine plasma concentrations, alone compared with co-administration ([1]; FIG. 2): essentially identical
weight normalized CL/F, alone compared with combination ([1]; between the two treatments): essentially the same
induction or inhibition of the CYP450 system (CYP450 system): neither an inducer nor inhibitor
metabolism by the CYP450 system (CYP450 system): not metabolized by the CYP450 system
mean lisdexamphetamine plasma concentrations, alone compared with co-administration ([2]; FIG. 3): essentially identical
AUC ([2]; human, plasma, single oral dose 50 mg, read-out: lisdexamphetamine AUCinfo, Geo Mean): 32.4 ng·h/mL
AUC ([2]; human, plasma, single oral dose 50 mg, read-out: lisdexamphetamine AUCinfo, Mean): 36.1 ng·h/mL
AUC ([2]; human, plasma, single oral dose 50 mg, read-out: lisdexamphetamine AUCinfo, Median): 33.2 ng·h/mL
AUC(0-t) ([2]; human, plasma, single oral dose 50 mg, read-out: lisdexamphetamine AUClast, Geo Mean): 28.3 ng·h/mL
AUC(0-t) ([2]; human, plasma, single oral dose 50 mg, read-out: lisdexamphetamine AUClast, Mean): 32.1 ng·h/mL
AUC(0-t) ([2]; human, plasma, single oral dose 50 mg, read-out: lisdexamphetamine AUClast, Median): 27.2 ng·h/mL
Cmax ([2]; human, plasma, single oral dose 50 mg, read-out: lisdexamphetamine Cmax, Geo Mean): 22.5 ng/mL
Cmax ([2]; human, plasma, single oral dose 50 mg, read-out: lisdexamphetamine Cmax, Mean): 26.1 ng/mL
Cmax ([2]; human, plasma, single oral dose 50 mg, read-out: lisdexamphetamine Cmax, Median): 25.2 ng/mL
Tmax ([2]; human, plasma, single oral dose 50 mg, read-out: lisdexamphetamine Tmax, Geo Mean): 1.1 h
Tmax ([2]; human, plasma, single oral dose 50 mg, read-out: lisdexamphetamine Tmax, Mean): 1.1 h
Tmax ([2]; human, plasma, single oral dose 50 mg, read-out: lisdexamphetamine Tmax, Median): 1 h
Vd/F ([2]; human, plasma, single oral dose 50 mg, read-out: lisdexamphetamine VZ/F, Geo Mean): 1090 L
Vd/F ([2]; human, plasma, single oral dose 50 mg, read-out: lisdexamphetamine VZ/F, Mean): 1270 L
Vd/F ([2]; human, plasma, single oral dose 50 mg, read-out: lisdexamphetamine VZ/F, Median): 1040 L
CL/F ([2]; human, plasma, single oral dose 50 mg, weight normalized, read-out: lisdexamphetamine CL/F, Geo Mean (converted)): 339 mL/min/kg
CL/F ([2]; human, plasma, single oral dose 50 mg, weight normalized, read-out: lisdexamphetamine CL/F, Mean (converted)): 362 mL/min/kg
CL/F ([2]; human, plasma, single oral dose 50 mg, weight normalized, read-out: lisdexamphetamine CL/F, Median (converted)): 345 mL/min/kg
Vd/F ([2]; human, plasma, single oral dose 50 mg, weight normalized, read-out: lisdexamphetamine VZ/F, Geo Mean): 14.4 L/kg
Vd/F ([2]; human, plasma, single oral dose 50 mg, weight normalized, read-out: lisdexamphetamine VZ/F, Mean): 16 L/kg
Vd/F ([2]; human, plasma, single oral dose 50 mg, weight normalized, read-out: lisdexamphetamine VZ/F, Median): 13.7 L/kg
half-life ([2]; human, plasma, single oral dose 50 mg, read-out: lisdexamphetamine T1/2, Mean (converted)): 0.5 h
lisdexamphetamine AUCinfo, Max ([2]; single oral dose 50 mg): 95.6 ng·h/mL
lisdexamphetamine AUCinfo, Min ([2]; single oral dose 50 mg): 14.2 ng·h/mL
lisdexamphetamine AUClast, Max ([2]; single oral dose 50 mg): 94.3 ng·h/mL
lisdexamphetamine AUClast, Min ([2]; single oral dose 50 mg): 10.2 ng·h/mL
lisdexamphetamine CL/F, Geo Mean ([2]; single oral dose 50 mg): 1543 L/h
lisdexamphetamine CL/F, Max ([2]; single oral dose 50 mg): 3523.94 L/h
lisdexamphetamine CL/F, Mean ([2]; single oral dose 50 mg): 1701.28 L/h
lisdexamphetamine CL/F, Median ([2]; single oral dose 50 mg): 1504.94 L/h
lisdexamphetamine CL/F, Min ([2]; single oral dose 50 mg): 522.89 L/h
lisdexamphetamine Cmax, Max ([2]; single oral dose 50 mg): 82.37 ng/mL
lisdexamphetamine Cmax, Min ([2]; single oral dose 50 mg): 5.87 ng/mL
lisdexamphetamine T1/2, Geo Mean ([2]; single oral dose 50 mg): 0.5 h
lisdexamphetamine T1/2, Max ([2]; single oral dose 50 mg): 0.8 h
lisdexamphetamine T1/2, Min ([2]; single oral dose 50 mg): 0.3 h
lisdexamphetamine Tmax, Max ([2]; single oral dose 50 mg): 1.5 h
lisdexamphetamine Tmax, Min ([2]; single oral dose 50 mg): 1 h
lisdexamphetamine CL/F, Max [2, 6]: 660.7 mL/min/kg
lisdexamphetamine CL/F, Min [2, 6]: 115 mL/min/kg
lisdexamphetamine plasma concentration, Max ([2]; time 0, single oral dose 50 mg): 0
lisdexamphetamine plasma concentration, Mean ([2]; time 0, single oral dose 50 mg): 0
lisdexamphetamine plasma concentration, Median ([2]; time 0, single oral dose 50 mg): 0
lisdexamphetamine plasma concentration, Min ([2]; time 0, single oral dose 50 mg): 0
lisdexamphetamine plasma concentration, Max [2, 7]: 54.99
lisdexamphetamine plasma concentration, Mean [2, 7]: 8.5483
lisdexamphetamine plasma concentration, Median [2, 7]: 4.51
lisdexamphetamine plasma concentration, Min [2, 7]: 0
lisdexamphetamine plasma concentration, Max ([2]; time 1, single oral dose 50 mg): 82.37
lisdexamphetamine plasma concentration, Mean ([2]; time 1, single oral dose 50 mg): 24.921
lisdexamphetamine plasma concentration, Median ([2]; time 1, single oral dose 50 mg): 23.56
lisdexamphetamine plasma concentration, Min ([2]; time 1, single oral dose 50 mg): 4.5
lisdexamphetamine plasma concentration, Max [2, 8]: 41.42
lisdexamphetamine plasma concentration, Mean [2, 8]: 17.7205
lisdexamphetamine plasma concentration, Median [2, 8]: 15.72
lisdexamphetamine plasma concentration, Min [2, 8]: 5.87
lisdexamphetamine plasma concentration, Max ([2]; time 2, single oral dose 50 mg): 19.94
lisdexamphetamine plasma concentration, Mean ([2]; time 2, single oral dose 50 mg): 9.0166
lisdexamphetamine plasma concentration, Median ([2]; time 2, single oral dose 50 mg): 8.17
lisdexamphetamine plasma concentration, Min ([2]; time 2, single oral dose 50 mg): 2.42
lisdexamphetamine plasma concentration, Max ([2]; time 3, single oral dose 50 mg): 6.32
lisdexamphetamine plasma concentration, Mean ([2]; time 3, single oral dose 50 mg): 1.8902
lisdexamphetamine plasma concentration, Median ([2]; time 3, single oral dose 50 mg): 1.87
lisdexamphetamine plasma concentration, Min ([2]; time 3, single oral dose 50 mg): 0
lisdexamphetamine plasma concentration, Max ([2]; time 4, single oral dose 50 mg): 2.28
lisdexamphetamine plasma concentration, Mean ([2]; time 4, single oral dose 50 mg): 0.2849
lisdexamphetamine plasma concentration, Median ([2]; time 4, single oral dose 50 mg): 0
lisdexamphetamine plasma concentration, Min ([2]; time 4, single oral dose 50 mg): 0
lisdexamphetamine plasma concentration, Max ([2]; time 6, single oral dose 50 mg): 0
lisdexamphetamine plasma concentration, Mean ([2]; time 6, single oral dose 50 mg): 0
lisdexamphetamine plasma concentration, Median ([2]; time 6, single oral dose 50 mg): 0
lisdexamphetamine plasma concentration, Min ([2]; time 6, single oral dose 50 mg): 0
lisdexamphetamine plasma concentration, Max ([2]; time 8, single oral dose 50 mg): 0
lisdexamphetamine plasma concentration, Mean ([2]; time 8, single oral dose 50 mg): 0
lisdexamphetamine plasma concentration, Median ([2]; time 8, single oral dose 50 mg): 0
lisdexamphetamine plasma concentration, Min ([2]; time 8, single oral dose 50 mg): 0
lisdexamphetamine plasma concentration, Max [2, 9]: 0
lisdexamphetamine plasma concentration, Mean [2, 9]: 0
lisdexamphetamine plasma concentration, Median [2, 9]: 0
lisdexamphetamine plasma concentration, Min [2, 9]: 0
lisdexamphetamine plasma concentration, Max [2, 10]: 0
lisdexamphetamine plasma concentration, Mean [2, 10]: 0
lisdexamphetamine plasma concentration, Median [2, 10]: 0
lisdexamphetamine plasma concentration, Min [2, 10]: 0
lisdexamphetamine plasma concentration, Max [2, 11]: 0
lisdexamphetamine plasma concentration, Mean [2, 11]: 0
lisdexamphetamine plasma concentration, Median [2, 11]: 0
lisdexamphetamine plasma concentration, Min [2, 11]: 0
lisdexamphetamine plasma concentration, Max [2, 12]: 0
lisdexamphetamine plasma concentration, Mean [2, 12]: 0
lisdexamphetamine plasma concentration, Median [2, 12]: 0
lisdexamphetamine plasma concentration, Min [2, 12]: 0
lisdexamphetamine plasma concentration, Max [2, 13]: 0
lisdexamphetamine plasma concentration, Mean [2, 13]: 0
lisdexamphetamine plasma concentration, Median [2, 13]: 0
lisdexamphetamine plasma concentration, Min [2, 13]: 0
TEAE: Any Event [3]: 8 (19.5) n (%)
TEAE: Arrhythmia supraventricular [3]: 1 (2.4) n (%)
TEAE: Cardiac disorders [3]: 3 (7.3) n (%)
TEAE: Diarrhoea [3]: 0 (0.0) n (%)
TEAE: Dizziness [3]: 3 (7.3) n (%)
TEAE: Dizziness postural [3]: 1 (2.4) n (%)
TEAE: Dry mouth [3]: 1 (2.4) n (%)
TEAE: Dysmenorrhoea [3]: 1 (2.4) n (%)
TEAE: Flushing [3]: 0 (0.0) n (%)
TEAE: Gastrointestinal disorders [3]: 2 (4.9) n (%)
TEAE: General disorders and administration site conditions [3]: 0 (0.0) n (%)
TEAE: Headache [3]: 2 (4.9) n (%)
TEAE: Nausea [3]: 1 (2.4) n (%)
TEAE: Nervous system disorders [3]: 4 (9.8) n (%)
TEAE: Nervousness [3]: 2 (4.9) n (%)
TEAE: Non-cardiac chest pain [3]: 0 (0.0) n (%)
TEAE: Orthostatic hypotension [3]: 0 (0.0) n (%)
TEAE: Palpitations [3]: 1 (2.4) n (%)
TEAE: Paraesthesia [3]: 0 (0.0) n (%)
TEAE: Psychiatric disorders [3]: 2 (4.9) n (%)
TEAE: Psychomotor hyperactivity [3]: 1 (2.4) n (%)
TEAE: Reproductive system and breast disorders [3]: 1 (2.4) n (%)
TEAE: Supraventricular extrasystoles [3]: 0 (0.0) n (%)
TEAE: Tachycardia [3]: 1 (2.4) n (%)
TEAE: Vascular disorders [3]: 0 (0.0) n (%)
TEAE: Wandering pacemaker [3]: 1 (2.4) n (%)

Cl.N=C(N)NC(=O)Cc1c(Cl)cccc1Cl [guanfacine]
metabolism by CYP3A4 (CYP3A4): known to be metabolized by CYP3A4
guanfacine Cmax in combination compared with alone [4]: higher than when administered alone
delayed response performance [5]: can be improved
